Data published in patent publication US7351546B2, “Flow cytometric, whole blood dendritic cell immune function assay” (Becton, Dickinson and Company, priority 1998, dated 2008).
“Also recorded” adds a separate entry of the source.

How the values were obtained:
Assay type in all cases: cell-based, human
CD11c^+CD123^low DCs = details: CD11c+ subset; whole blood; activator 4 hours at 37° C. with Brefeldin A
Protocol: (§1) Venous blood of normal donors was collected in sodium heparin […]® tubes. For activation with LPS, the blood was stimulated with 1 μg/mL LPS. […] PMA was then added at 5 ng/mL and ionomycin at 1 μg/mL. For activation by CD40 crosslinking, 50 μL CD40-coated polystyrene beads was added to 1 mL whole blood. All samples were incubated for four hours at 37° C. in a humidified incubator with 5% CO2.
(§2) For detection of intracellular cytokines, activation, as above, was performed in the presence additionally of Brefeldin A (BFA) at 10 μg/mL. Control (resting) aliquots were incubated with BFA alone.
(§3) Cell preparation was done at room temperature (RT), and all incubation steps were performed in the dark.
(§4) For staining, 1 mL of sample (activated or resting blood control) was added to a cocktail of dendritic cell-distinguishing antibodies (20 μL lineage cocktail 1-FITC, 10 μL HLA-DR PerCP, 5 μL CD11c APC; reagent volumes per 50 μL blood) in a 50 mL polypropylene centrifuge tube. The blood was incubated in the presence of the fluorophore-conjugated antibodies for 15 min. After incubation, 40 mL FACS® Lysing Solution was added and the tube incubated for a further 10 min. The cells were then collected by centrifugation for 10 min at 500×g, and the pellet gently broken off for further processing. Next, 10 mL FACS® Permeabilizing Solution was added and the cells were incubated for 10 min. […]

CD11c^−CD123^+ DCs = details: CD11c−CD123+ subset; whole blood
Protocol: as §1, §2, §3, §4

CD11c^− DCs = details: CD11c− subset; whole blood; activator 4 hours at 37° C. without Brefeldin A
Protocol: as §1
For detection of changes in surface antigen expression, samples were incubated with DC activator, as above, without the further addition of BFA. Control (resting) aliquots were incubated with neither BFA nor activator.
Cell preparation was done at room temperature (RT) and all incubation steps were performed in the dark.
For staining, 150 μL of sample (activated or resting blood control) was added to a cocktail of monoclonal antibodies in a staining tube.
After incubation, 3 mL of FACS® Lysing Solution was added and the tube incubated for 10 min at RT. The lysed cells were centrifuged for 5 min at 500×g and subsequently washed with 3 mL buffer (DPBS 1×, 0.5% fetal calf serum). The cell pellet was resuspended in 250 μL buffer and immediately acquired on a flow cytometer. If data acquisition was delayed, the cells were maintained at 4° C. for up to one hour.
The samples as described above were acquired on a FACSCalibur™ dual laser flow cytometer (BDIS, San Jose, Calif.). […]

CD11c^+ DCs = assay: Cytokine kinetic assay in LPS activated CD11c+ DCs; details: 1 μg/ml LPS, time course 0 to 8 hours
Protocol: The time course of LPS incubation was 0 to 8 hours. Intracellular cytokine and CD80 expression is measured as PE mean fluorescence intensity (MFI).
Whole blood was stimulated with 1 μg/ml LPS and incubated in polypropylene tubes (12×75 mm) at 37° C. in a humidified atmosphere containing 5% CO2. Aliquots were processed, essentially as set forth in Examples 1 and 2 above, every hour from 0 to 8 hrs post stimulation. One hour prior to each sample harvest, BFA was added at 10 μg/mL.

monocytes = details: activated whole blood with BFA
Protocol: The cytokine expression of monocytes was evaluated in some of the same samples. Monocytes were identified based on their scatter characteristics, their bright lin 1 FITC, anti-HLA-DR PerCP and CD11c APC staining. […] Intracellular protein secretion is evaluated as PE mean fluorescence intensity (MFI).

## Lipopolysaccharide [LPS]
CD11c^+CD123^low DCs
  IL-12 expression (intracellular, MFI): trace levels
CD11c^−CD123^+ DCs
  production of any of the tested cytokines: absence of detectable cytokine production; also recorded: fail to respond
CD11c^− DCs
  CD80 change in surface expression (ratio of MFI activated versus control): upregulation; also recorded: strongest signal
  CD86 change in surface expression (ratio of MFI activated versus control): upregulation
CD11c^+ DCs
  order of cytokine production (kinetics of the response): TNFα is produced first, followed by IL-1β and IL-6
  time of activation after which CD80 is intensely upregulated: about 4 hours
monocytes
  cytokine expression of monocytes compared with CD11c+ DCs (PE MFI): higher levels; also recorded: much more potently
